Entries after “also recorded” stand apart in the source; their conditions may differ.
Key:
[1] = tested on: human Bach1; assay: MARE controlled luciferase reporter gene assay in HepG2 cells with or without Bach1 expression; assay type: cell-based; conditions: transient transfection, with or without Bach1 expressing plasmid, FIG. 7
Method: The ability of Compound 13 to act in a manner similar to CoPP provides evidence for the hypothesis that Bach1 activity is being modulated by the compounds. […] To that end, expression vectors were prepared which contained the HMOX1 mARE promoter element recognized by both Bach1 and Nrf2. This element was placed in control of the reporter gene luciferase. Under conditions of transient transfection of HepG2 cells, the reporter has a low level of basal activity due to the relative ratio of Bach1 and Nrf2 found in the cell. Co-transfection with a Bach1 expressing plasmid leads to repression of luciferase activity. Therefore, one can test whether the compounds can increase the level of luciferase in the cells, thus overcoming Bach1 repression. […] Thus, the tested compound is able to overcome suppression by additional Bach1.

[2] = tested on: NHLF cells; assay: Cytoprotection of cisplatin (CDDP)-treated NHLF cells (propidium iodide staining); assay type: cell-based; conditions: NHLF cells, compound 24 hours prior to cisplatin exposure, FIG. 8
Method: (§1) A key outcome of Bach1 derepression and Nrf2 activation are the induction of cytoprotective genes. A method to test such cytoprotection is to assess the ability of a compound to protect normal human cells such as lung fibroblasts from toxicity due to cisplatin exposure. A model of cellular cytoprotection was established whereby normal human lung fibroblasts were treated with Bach1 modulators and then subsequently exposed to cisplatin. NHLF cells are very sensitive to cisplatin exposure; following a dose of 200 uM cisplatin, >90% of NHLF cells are propidium iodide positive, a measure of cell death.

[3] = tested on: HMOX1; assay: HMOX1 induction in NHLF cells in the cisplatin cytoprotection model; assay type: cell-based, human; conditions: compound 24 hours prior to cisplatin, FIG. 8
Method: as §1

[4] = tested on: HMOX1; assay: HMOX1 induction in human bone marrow-derived mesenchymal stem cells (Western blotting); assay type: cell-based; conditions: BMMSC, 3 and 10 days of exposure, FIG. 9
Method: Previous work has shown that HMOX1 expression can suppress the differentiation of human bone marrow mesenchymal stem cells (BMMSC) into adipocytes, a process termed adipogenesis [Li et al., Diabetes 57(6):1526-1535 (2008)]. As such, we tested Bach1 modulators for the ability to suppress BMMSC differentiation into adipocytes in the presence of high glucose containing media. Two Bach1 modulators and a null compound were tested to determine the ability of the compounds to induce HMOX1 after 3 and 10 days of exposure to compound.

[5] = tested on: human bone marrow mesenchymal stem cells (BMMSC); assay: Differentiation of bone marrow mesenchymal stem cells to adipocytes (Oil Red staining); assay type: cell-based; conditions: high glucose, 21 days continuous exposure, FIG. 10
Description: In this assay, the cells are continuously exposed to compound for 21 days and then tested for the presence of oil-Red staining lipid droplets.

[6] = tested on: NHLF cells; assay: ROS measurements (H2DCF-DA imaging); assay type: cell-based, human; conditions: 1 hr, cell-by-cell imaging, FIG. 3A/3B
Method: Secondary growth of NHLF cells were used for all assays. Cells were cultured as above. Cells were plated into 384-well BD-Optilux Plates at 2,000 cells/well and cultured overnight at 37° C. and 5% CO2. The following day, cell were washed and 2,7-dihydrodichlorofluorescin diacetate (H2DCF-DA), 10 μM ferric ammonium citrate (FAC), and Hoechst stain were added to cells for 30 min. The cells were washed once with PBS to remove any H2DCF-DA not taken up by cells. Test compounds were prepared in FBM-2 media at the desired concentrations. The plates and stain-treated cells were incubated with test compounds for 1 hr at 37° C. and 5% CO2. Following the incubation period, ROS generation was determined by imaging the cells on a GE INcell 1000 imager (Hoechst Ex. 360 Em. 535; H2DCF-DA 488 Ex. 480 Em. 535). ROS levels were determined and quantified using GE IN Cell Analyzer Software.
In addition to gene profiling, the requirement for ROS generation or chemical reactivity was tested. ROS generation was measured using an automated imaging technique. Compound 13 as well as two other compounds that were found in the screening set were tested in this experiment. Untreated NHLF cells, NHLF cells treated with the HMOX1 inducer CoPP (a negative control), and NHLF cells treated with curcumin or celestrol (positive controls) were included as controls. […] Further experiments were also conducted on chemical derivatives of Compound 13. In those experiments, all compounds tested were found not to induce an elevation of ROS levels in the cell (FIG. 3B). Thus, Compound 13 and related compounds represent a class of agents that elevate HMOX1 production without elevating ROS production.

[7] = tested on: HMOX1; assay: Effect of NAC on compound induction of HMOX gene expression; assay type: cell-based, human; conditions: NHLF cells pretreated with 5 mM NAC 1 hr, compound 6 h, FIG. 4
Method: NHLF cells were grown to 80% confluency and harvested by washing once with HEPES and then trypsinizing. Equal numbers (7×10^4 cells per well) of NHLF cells were plated in 96 well tissue culture (Corning) plates. Cells were incubated overnight in FGM-2 medium prior to exposure to compound. Cells were pretreated with 5 mM N-acetyl cysteine for 1 hr. Cells were treated with either DMSO or compound for 6 h. Preparation of cell lysates was carried out according to Quantigene Reagent system 2.0 protocol (Panomics). Heme oxygenase mRNA induction was detected from cell lysate using the Quantigene Plex 2.0 Assay Kit (Panomics) on the Luminex platform (BIO-RAD). Expression of GAPDH mRNA was used as the internal control for the Quantigen Plex 2.0 Assay. Heme oxygenase data represents the fold change, normalized to control values, above DMSO treated cells.
A further test of the hypothesis that Compound 13 induces HMOX1 with minimal alteration of cellular redox levels or chemical reactivity was carried out by treating cells with N-acetyl cysteine (NAC). This compound acts to restore cellular glutathione levels and thus prevent oxidative stress. The degree to which NAC can suppress HMOX1 induction is an indicator of the amount of chemical reactivity or ROS stress that a compound is imposing on the cell and thus activating phase II gene transcription. […] Coupled with the data shown in FIG. 3, it is concluded that Compound 13 induces HMOX1 with minimal elevation of ROS or NAC-sensitive chemical reactivity.

[8] = tested on: Nrf2; assay: HMOX1 mRNA induction after Nrf2 siRNA silencing; assay type: cell-based, human; conditions: NHLF cells, 50 nM siRNA 48 hours, FIG. 5
Method: Small interfering RNA targeting Nrf-2 (cat# SI03246614) or KEAP-1 (cat# SI03246439) were obtained from Qiagen at 20 nmol/tube. Negative control siRNA (cat#1027280) was also obtained from Qiagen. Lyophilized siRNA in each tube was resuspended with 1 ml of the provided siRNA Suspension Buffer to make a stock solution of 20 μM and tubes were heated at 90° C. for one minute and then at 37° C. for one hour prior to initial use.
Normal human lung fibroblasts were plated at 5000 cells/well in 96-well plates and allowed to attach. Prior to experiments, well s containing the cells were refreshed with 30 μl of complete growth medium. For each siRNA type, a 4× concentration (200 nM) of siRNA was prepared by adding 11 μl of siRNA stock into 1.1 ml of serum-free medium containing 9 μl/ml of SILENTFECT Lipid Reagent (BioRad, cat#170-3361). This solution was incubated at room temperature for 20 minutes prior to adding 10 μl into each well for a final concentration of 50 nM siRNA. Cells were incubated with siRNA for 48 hours, after which they were treated with compound for either 5 hours (QuantiGene RNA assay) or 15 hours (protein immunofluorescence assay).
The predicted response profile is that silencing of Nrf2 should reduce the amount of HMOX1 induction by Compound 13 and other HMOX1 inducers that are electrophiles or reactive compounds. To that end, Compound 13 and other tool compounds were tested in cells that were treated with siRNA directed to Nrf2. Following gene silencing with specific siRNA or control siRNA, the ability of tool compounds to induce HMOX1 mRNA was determined.

Row | Structure (SMILES) | luciferase activity of HMOX1 mARE reporter [1] | protection against cisplatin toxicity [2] | HMOX1 induction [3] | HMOX1 induction by Western blotting [4] | inhibition of adipogenesis (Oil Red staining) [5] | ROS production (in words) [6] | effect of N-acetyl cysteine (NAC) on HMOX1 induction [7] | HMOX1 mRNA induction with siRNA directed to Nrf2 [8]
1 | CNC(=O)c1ccc2[nH]c(Nc3nc4ccc(OC(F)(F)F)cc4s3)nc2c1 [Compound 7, 2-(6-Trifluoromethoxy-benzothiazol-2-ylamino)-1H-benzoimidazole-5-carboxylic acid methylamide] | able to induce luciferase activity in the presence or absence of Bach1 protein expression; also recorded: can overcome this repression |  |  |  |  |  |  | 
2 | CN(C)C(=O)CNC(=O)c1ccc2c(c1)nc(Nc1nc3ccc(OC(F)(F)F)cc3s1)n2C [Compound 9, 1-Methyl-2-(6-trifluoromethoxy-benzothiazol-2-ylamino)-1H-benzoimidazole-5-carboxylic acid dimethylcarbamoylmethyl-amide] |  | near-total cellular protection; also recorded: protect the cells from CDDP-mediated toxicity | induced HMOX1 | induced HMOX1 | suppress Oil-O red staining; also recorded: inhibited stem cell differentiation |  |  | 
3 | CC(C)(C)N1C(=O)C=C(c2cccc(-n3cc(-c4ccc(Cl)cc4Cl)nc3Cc3ccc(Br)cc3)c2)S1(=O)=O [Compound 15, 5-{3-[2-(4-Bromo-benzyl)-4-(2,4-dichloro-phenyl)-imidazol-1-yl]-phenyl}-2-tert-butyl-1,1-dioxo-1,2-dihydro-isothiazol-3-one] |  |  |  |  |  | elevated ROS levels to a greater degree than did Compound 13; also recorded: little increase in ROS production | inhibited nearly fully by NAC; also recorded: fully suppressed in the presence of NAC | affected by the presence of the siRNA for Nrf2; also recorded: requires Nrf2 for full induction of HMOX1 mRNA
4 | Cn1c(Nc2nc3ccc(Cl)cc3s2)nc2cc(C(=O)NCC(=O)O)ccc21 [Compound 12, {[2-(6-Chloro-benzothiazol-2-ylamino)-1-methyl-1H-benzoimidazole-5-carbonyl]-amino}-acetic acid] |  | failed to protect NHLF cells against cisplatin toxicity; also recorded: failed to protect cells from CDDP-mediated cytotoxicity | inactive HMOX1 inducers; also recorded: did not induce HMOX1 | failed to induce HMOX1 | fails to inhibit adipogenesis; also recorded: failed to do so |  |  | 
5 | CC(C)(C)N1C(=O)C=C(c2cccc(N(CC(=O)c3ccc(Cl)cc3Cl)C(=O)Cc3ccc(Br)cc3)c2)S1(=O)=O [Compound 14, 2-(4-Bromo-phenyl)-N-[3-(2-tert-butyl-1,1,3-trioxo-2,3-dihydro-1H-isothiazol-5-yl)-phenyl]-N-[2-(2,4-dichloro-phenyl)-2-oxo-ethyl]-acetamide] |  |  |  |  |  | elevated ROS levels to a greater degree than did Compound 13; also recorded: little increase in ROS production | inhibited nearly fully by NAC; also recorded: fully suppressed in the presence of NAC | affected by the presence of the siRNA for Nrf2; also recorded: requires Nrf2 for full induction of HMOX1 mRNA
6 | Cn1c(Nc2nc3ccc(OC(F)(F)F)cc3s2)nc2cc(C(=O)NCCOCCO)ccc21 [Compound 10, 1-Methyl-2-(6-trifluoromethoxy-benzothiazol-2-ylamino)-1H-benzoimidazole-5-carboxylic acid [2-(2-hydroxy-ethoxy)-ethyl]-amide] |  | near-total cellular protection; also recorded: protect the cells from CDDP-mediated toxicity | induced HMOX1 | induced HMOX1 | suppress Oil-O red staining; also recorded: inhibited stem cell differentiation |  |  | 

— US9707239B2, “Compounds that modulate oxidative stress” (vTv Therapeutics LLC, priority 2011, dated 2017)
